Bases are written 5' to 3'; sugars and linkages follow in the same order, as letters with counts (s phosphorothioate, o phosphodiester; PS: all linkages phosphorothioate). C may stand for cytosine or 5-methylcytosine; the collection does not tell. l = locked nucleic acid (LNA); d = 2'-deoxy (DNA)

The target of the data set is HIF1A. Kind of data set: HeLa, 100 nM transfected, 24 h, mean of 3. Particulars: ASO.
Turning to “TGGCAAGCATCCT (sugars l1 d1 l1 d7 l3, PS)”, the caspase activation (% of PBS control) turned out to be 127.

“TGGCAAGCATCCT (sugars l1 d1 l1 d8 l2, PS)” had a caspase activation (% of PBS control) of 145.

Take “TGGCAAGCATCCT (sugars l1 d1 l1 d9 l1, PS)”: the caspase activation (% of PBS control) was determined as 160.

Take “TGGCAAGCATCCT (sugars l1 d1 l2 d6 l3, PS)”: the caspase activation (% of PBS control) came to 260.

As to “TGGCAAGCATCCT (sugars l1 d1 l2 d7 l2, PS)”, the caspase activation (% of PBS control) stood at 353.

Turning to “TGGCAAGCATCCT (sugars l1 d1 l2 d8 l1, PS)”, the caspase activation (% of PBS control) was found to be 327.

The sequence “TGGCAAGCATCCT (sugars l1 d2 l1 d6 l3, PS)” gave a caspase activation (% of PBS control) of 112.

“TGGCAAGCATCCT (sugars l1 d2 l1 d7 l2, PS)”: the caspase activation (% of PBS control) was 157.

Sequence “TGGCAAGCATCCT (sugars l1 d2 l1 d8 l1, PS)” returned a caspase activation (% of PBS control) of 178.

Turning to “TGGCAAGCATCCT (sugars l1 d9 l1 d1 l1, PS)”, the caspase activation (% of PBS control) worked out at 242.

Sequence TGGCAAGCATCCT (sugars l1 d9 l3, PS) had a caspase activation (% of PBS control) of 330.

With TGGCAAGCATCCT (sugars l1 d10 l2, PS), the caspase activation (% of PBS control) came out at 253.

Consider TGGCAAGCATCCT (sugars l1 d11 l1, PS), for which the caspase activation (% of PBS control) stood at 123.

“TGGCAAGCATCCT (sugars l2 d1 l1 d6 l3, PS)”: the caspase activation (% of PBS control) is 259.

“TGGCAAGCATCCT (sugars l2 d1 l1 d7 l2, PS)” displayed a caspase activation (% of PBS control) of 361.

Sequence “TGGCAAGCATCCT (sugars l2 d1 l1 d8 l1, PS)” registered a caspase activation (% of PBS control) of 383.

In turn, “TGGCAAGCATCCT (sugars l2 d8 l1 d1 l1, PS)” had a caspase activation (% of PBS control) of 407.

With TGGCAAGCATCCT (sugars l2 d8 l3, PS), the caspase activation (% of PBS control) stood at 315.

Sequence TGGCAAGCATCCT (sugars l2 d9 l2, PS) displayed a caspase activation (% of PBS control) of 434.

Consider TGGCAAGCATCCT (sugars l2 d10 l1, PS), for which the caspase activation (% of PBS control) is 364.

Sequence “TGGCAAGCATCCT (sugars l3 d7 l1 d1 l1, PS)” had a caspase activation (% of PBS control) of 268.

For TGGCAAGCATCCT (sugars l3 d7 l3, PS), the caspase activation (% of PBS control) was found to be 249.

Sequence TGGCAAGCATCCT (sugars l3 d8 l2, PS) came in with a caspase activation (% of PBS control) of 217.

TGGCAAGCATCCT (sugars l3 d9 l1, PS) showed a caspase activation (% of PBS control) of 287.

In the case of “TGGCAAGCATCCT (sugars l4 d6 l1 d1 l1, PS)”, the caspase activation (% of PBS control) turned out to be 480.

As to TGGCAAGCATCCT (sugars l4 d6 l3, PS), the caspase activation (% of PBS control) was 361.

TGGCAAGCATCCT (sugars l4 d7 l2, PS): the caspase activation (% of PBS control) came to 447.

TGGCAAGCATCCT (sugars l4 d8 l1, PS) displayed a caspase activation (% of PBS control) of 471.

In the case of “TGGCAAGCATCCT (sugars lddlddddddldl, PS)”, the caspase activation (% of PBS control) was determined as 132.

“TGGCAAGCATCCT (sugars ldldddddddldl, PS)” showed a caspase activation (% of PBS control) of 170.

As to “TGGCAAGCATCCT (sugars ldllddddddldl, PS)”, the caspase activation (% of PBS control) turned out to be 377.

For the sequence “TGGCAAGCATCCT (sugars lldlddddddldl, PS)”, the caspase activation (% of PBS control) stood at 369.

With “TGGCAAGCATCCTGTA (sugars l1 d1 l1 d8 l5, PS)”, the caspase activation (% of PBS control) was 417.

Take “TGGCAAGCATCCTGTA (sugars l1 d1 l1 d9 l4, PS)”: the caspase activation (% of PBS control) worked out at 379.

For the sequence “TGGCAAGCATCCTGTA (sugars l1 d1 l1 d10 l3, PS)”, the caspase activation (% of PBS control) amounted to 188.

“TGGCAAGCATCCTGTA (sugars l1 d1 l1 d11 l2, PS)” had a caspase activation (% of PBS control) of 135.

As for “TGGCAAGCATCCTGTA (sugars l1 d1 l1 d12 l1, PS)”, the caspase activation (% of PBS control) was determined as 180.

The sequence “TGGCAAGCATCCTGTA (sugars l1 d1 l2 d7 l5, PS)” came in with a caspase activation (% of PBS control) of 415.

For “TGGCAAGCATCCTGTA (sugars l1 d1 l2 d8 l4, PS)”, the caspase activation (% of PBS control) was found to be 398.

“TGGCAAGCATCCTGTA (sugars l1 d1 l2 d9 l3, PS)” showed a caspase activation (% of PBS control) of 479.

Regarding “TGGCAAGCATCCTGTA (sugars l1 d1 l2 d10 l2, PS)”, the caspase activation (% of PBS control) came to 342.

In the case of “TGGCAAGCATCCTGTA (sugars l1 d1 l2 d11 l1, PS)”, the caspase activation (% of PBS control) came to 324.

As to “TGGCAAGCATCCTGTA (sugars l1 d1 l3 d6 l5, PS)”, the caspase activation (% of PBS control) stood at 482.

“TGGCAAGCATCCTGTA (sugars l1 d1 l3 d7 l4, PS)” yielded a caspase activation (% of PBS control) of 395.

For the sequence “TGGCAAGCATCCTGTA (sugars l1 d1 l3 d8 l3, PS)”, the caspase activation (% of PBS control) stood at 448.

Sequence “TGGCAAGCATCCTGTA (sugars l1 d1 l3 d9 l2, PS)” showed a caspase activation (% of PBS control) of 463.

“TGGCAAGCATCCTGTA (sugars l1 d1 l3 d10 l1, PS)” yielded a caspase activation (% of PBS control) of 595.

Sequence “TGGCAAGCATCCTGTA (sugars l1 d2 l1 d7 l5, PS)” displayed a caspase activation (% of PBS control) of 416.

Sequence “TGGCAAGCATCCTGTA (sugars l1 d2 l1 d8 l4, PS)” showed a caspase activation (% of PBS control) of 398.

As for “TGGCAAGCATCCTGTA (sugars l1 d2 l1 d9 l3, PS)”, the caspase activation (% of PBS control) worked out at 254.

Regarding “TGGCAAGCATCCTGTA (sugars l1 d2 l1 d10 l2, PS)”, the caspase activation (% of PBS control) was 196.

The sequence “TGGCAAGCATCCTGTA (sugars l1 d2 l1 d11 l1, PS)” came in with a caspase activation (% of PBS control) of 178.

In turn, “TGGCAAGCATCCTGTA (sugars l1 d2 l2 d6 l5, PS)” gave a caspase activation (% of PBS control) of 366.

“TGGCAAGCATCCTGTA (sugars l1 d2 l2 d7 l4, PS)” registered a caspase activation (% of PBS control) of 435.

In the case of “TGGCAAGCATCCTGTA (sugars l1 d2 l2 d8 l3, PS)”, the caspase activation (% of PBS control) amounted to 419.

“TGGCAAGCATCCTGTA (sugars l1 d2 l2 d9 l2, PS)” showed a caspase activation (% of PBS control) of 380.

With “TGGCAAGCATCCTGTA (sugars l1 d2 l2 d10 l1, PS)”, the caspase activation (% of PBS control) amounted to 367.

“TGGCAAGCATCCTGTA (sugars l1 d3 l1 d6 l5, PS)” displayed a caspase activation (% of PBS control) of 396.

For the sequence “TGGCAAGCATCCTGTA (sugars l1 d3 l1 d7 l4, PS)”, the caspase activation (% of PBS control) turned out to be 235.

Take “TGGCAAGCATCCTGTA (sugars l1 d3 l1 d8 l3, PS)”: the caspase activation (% of PBS control) came out at 172.

On to “TGGCAAGCATCCTGTA (sugars l1 d3 l1 d9 l2, PS)”, for which the caspase activation (% of PBS control) was determined as 135.

As to “TGGCAAGCATCCTGTA (sugars l1 d3 l1 d10 l1, PS)”, the caspase activation (% of PBS control) came to 146.

With “TGGCAAGCATCCTGTA (sugars l1 d10 l1 d1 l3, PS)”, the caspase activation (% of PBS control) was 348.

Take “TGGCAAGCATCCTGTA (sugars l1 d10 l1 d2 l2, PS)”: the caspase activation (% of PBS control) turned out to be 261.

In turn, “TGGCAAGCATCCTGTA (sugars l1 d10 l1 d3 l1, PS)” gave a caspase activation (% of PBS control) of 199.

Sequence “TGGCAAGCATCCTGTA (sugars l1 d10 l2 d1 l2, PS)” displayed a caspase activation (% of PBS control) of 444.

“TGGCAAGCATCCTGTA (sugars l1 d10 l2 d2 l1, PS)”: the caspase activation (% of PBS control) was 346.

“TGGCAAGCATCCTGTA (sugars l1 d10 l3 d1 l1, PS)”: the caspase activation (% of PBS control) came to 381.

Consider TGGCAAGCATCCTGTA (sugars l1 d10 l5, PS), for which the caspase activation (% of PBS control) is 480.

As for “TGGCAAGCATCCTGTA (sugars l1 d11 l1 d1 l2, PS)”, the caspase activation (% of PBS control) stood at 315.

In turn, “TGGCAAGCATCCTGTA (sugars l1 d11 l1 d2 l1, PS)” came in with a caspase activation (% of PBS control) of 190.

Turning to “TGGCAAGCATCCTGTA (sugars l1 d11 l2 d1 l1, PS)”, the caspase activation (% of PBS control) stood at 231.

Regarding TGGCAAGCATCCTGTA (sugars l1 d11 l4, PS), the caspase activation (% of PBS control) was 346.

“TGGCAAGCATCCTGTA (sugars l1 d12 l1 d1 l1, PS)” registered a caspase activation (% of PBS control) of 150.

TGGCAAGCATCCTGTA (sugars l1 d12 l3, PS) had a caspase activation (% of PBS control) of 217.

TGGCAAGCATCCTGTA (sugars l1 d13 l2, PS) registered a caspase activation (% of PBS control) of 170.

Turning to TGGCAAGCATCCTGTA (sugars l1 d14 l1, PS), the caspase activation (% of PBS control) was determined as 201.

For the sequence “TGGCAAGCATCCTGTA (sugars l2 d1 l1 d7 l5, PS)”, the caspase activation (% of PBS control) was 427.

In the case of “TGGCAAGCATCCTGTA (sugars l2 d1 l1 d8 l4, PS)”, the caspase activation (% of PBS control) is 393.

Sequence “TGGCAAGCATCCTGTA (sugars l2 d1 l1 d9 l3, PS)” displayed a caspase activation (% of PBS control) of 520.

For “TGGCAAGCATCCTGTA (sugars l2 d1 l1 d10 l2, PS)”, the caspase activation (% of PBS control) was determined as 501.

In the case of “TGGCAAGCATCCTGTA (sugars l2 d1 l1 d11 l1, PS)”, the caspase activation (% of PBS control) was found to be 378.

Take “TGGCAAGCATCCTGTA (sugars l2 d1 l2 d6 l5, PS)”: the caspase activation (% of PBS control) stood at 477.

On to “TGGCAAGCATCCTGTA (sugars l2 d1 l2 d7 l4, PS)”, for which the caspase activation (% of PBS control) came to 394.

For “TGGCAAGCATCCTGTA (sugars l2 d1 l2 d8 l3, PS)”, the caspase activation (% of PBS control) amounted to 407.

“TGGCAAGCATCCTGTA (sugars l2 d1 l2 d9 l2, PS)” showed a caspase activation (% of PBS control) of 419.

“TGGCAAGCATCCTGTA (sugars l2 d1 l2 d10 l1, PS)” had a caspase activation (% of PBS control) of 401.

As to “TGGCAAGCATCCTGTA (sugars l2 d2 l1 d6 l5, PS)”, the caspase activation (% of PBS control) turned out to be 432.

For the sequence “TGGCAAGCATCCTGTA (sugars l2 d2 l1 d7 l4, PS)”, the caspase activation (% of PBS control) was 366.

The sequence “TGGCAAGCATCCTGTA (sugars l2 d2 l1 d8 l3, PS)” registered a caspase activation (% of PBS control) of 397.
